Like-named read-outs stand apart in the source and are kept apart here.
Key:
[1] = system: HaCaT; experiment: Cell survival by CellTiterGlo, control cells; assay type: cell-based, human; details: for AUC (arbitrary units) HaCaT: area under the dose-response curve, control cells; for IC50: Homo sapiens, HaCaT, control skin cell line, CellTiterGlo, normalized to DMSO, read-out: IC50 (nM) HaCaT
[2] = system: MCC13; experiment: Cell survival by CellTiterGlo, VN-MCC line MCC13; assay type: cell-based; details: for AUC (arbitrary units) MCC13: area under the dose-response curve; for IC50: CellTiterGlo, normalized to DMSO
[3] = system: MCC26; experiment: Cell survival by CellTiterGlo, VN-MCC line MCC26; assay type: cell-based; details: for AUC (arbitrary units) MCC26: area under the dose-response curve; for IC50: CellTiterGlo, normalized to DMSO
[4] = system: UISO; experiment: Cell survival by CellTiterGlo, VN-MCC line UISO; assay type: cell-based; details: for AUC (arbitrary units) UISO: area under the dose-response curve; for IC50: CellTiterGlo, normalized to DMSO
[5] = system: MKL-1; experiment: Cell survival by CellTiterGlo, VP-MCC line MKL-1; assay type: cell-based; details: for IC50: MKL-1, CellTiterGlo; for AUC (arbitrary units) MKL-1: area under the dose-response curve
[6] = system: Waga; experiment: Cell survival by CellTiterGlo, VP-MCC line Waga; assay type: cell-based; details: for AUC (arbitrary units) WaGa: area under the dose-response curve; for IC50: CellTiterGlo, normalized to DMSO
[7] = system: control (HaCaT) and Merkel cell carcinoma cell lines; experiment: Cell survival by CellTiterGlo, all seven cell lines; assay type: cell-based; details: for IC50: Homo sapiens, HaCaT; for activity on cell viability, in words: MCC and control cell lines
Experimental: (§1) Three methods were employed for assessment of MCC and control cell survival/viability after discorhabdin treatment, two metabolic assays and a cell permeability assay. For all three methods, cells were plated in 384-well plates at 2500 cells/well and treated with various concentrations of discorhabdins for various time periods. CellTiterGlo^TM (Promega, Madison, WI, USA) measures cellular ATP content and was used to estimate potency of discorhabdins in cell viability assays as previously described. Continuous monitoring of metabolic activity was accomplished using a cellular reducing potential luminescence assay, the RealTime-Glo^TM MT Cell Viability Assay (Promega, Madison, WI, USA) according to manufacturer’s instructions. Loss of cell plasma membrane integrity was assessed using a cell-impermeant molecule that becomes fluorescent upon binding DNA [82] in parallel with apoptosis detection per manufacturer’s instructions (RealTimeGlo^TM Annexin V Apoptosis and Necrosis Assay-Promega). Two additional assays of apoptotic cell death were also used. Caspase activation in response to treatment of MCC cells by discorhabdins or bortezomib (as a positive control) was measured using the CaspaseGlo® 3/7 Assay (Promega, Madison, WI, USA) according to the manufacturer’s instructions at multiple time points. Inhibition of apoptotic cell death was investigated using pre-treatment of cells with for 1 h with the pan-caspase inhibitor Z-VAD-FMK (Enzo Life Sciences, Farmingdale, NY, USA) followed by treatment with discorhabdins or bortezomib and estimation of cell viability as outlined above.
(§2) In order to compare responses among all of the discorhabdins and cell lines (98 combinations), dose–response curves were generated using identical discorhabdin dilution series. GraphPad Prism 8 (San Diego, CA, USA) software was utilized to graph dose–response data and to calculate IC50 values and area under the dose–response curves (AUC) along with 95% confidence interval estimates using four-parameter logistic nonlinear regression analysis. For further analysis and comparisons, AUC for each cell line/discorhabdin pair was visualized in a heatmap generated in R version 1.3.1073 (R Core Team (2013). R: A language and environment for statistical computing. R Foundation for Statistical Computing, Vienna, Austria, http://www.R-project.org/ (accessed on 12 January 2023).
Figure S39: Activity of discorhabdins against M CC cell lines.
The indicated discorh abd ins were ass essed for th eir ability to affect surviv al of control (H aCaT) and Merkel cell carcino ma cell lines (VN-MCC: MCC13, MCC26, UISO and VP -MCC: MKL-1, MKL-2, Wag a). Cells were plat ed at 2500 cells/well and compounds the next day. Cell survival was estimated by CellTiterGlo (normalized to untreated (DMSO) cells on the same plate). Structures w ere o btained from the supplier and/or the PubChem database or as described in the text. Number in bold in ( ) refers to structures in Figure 1 in the text. Curves were plotted and IC50 values and 95% confidence interval calculated by GraphPad software. […]

[8] = system: MKL-2; experiment: Cell survival by CellTiterGlo, VP-MCC line MKL-2; assay type: cell-based; details: for IC50: CellTiterGlo, normalized to DMSO; for AUC (arbitrary units) MKL-2: area under the dose-response curve
[9] = system: MCC cell lines; experiment: Cell survival by CellTiterGlo, MCC cell lines together; assay type: cell-based; details: average over MCC cell lines
Experimental: as §1, §2

[10] = CellTiterGlo, 10 µM highest concentration tested, read-out: IC50, all cell lines
[11] = essentially inactive compounds, read-out: average IC50 against all the cell lines
[12] = VP-MCC, normalized to DMSO, read-out: IC50 (nM) MKL-1

| Compound | AUC (arbitrary units) HaCaT [1] [arbitrary units] | AUC (arbitrary units) MCC13 [2] [arbitrary units] | AUC (arbitrary units) MCC26 [3] [arbitrary units] | AUC (arbitrary units) UISO [4] [arbitrary units] | IC50 ([5]; printed in brackets beside the all-cell-lines bound, read-out: IC50 MKL-1) [nM] | AUC (arbitrary units) MKL-1 ([5]; VP-MCC) [arbitrary units] | AUC (arbitrary units) WaGa [6] [arbitrary units] | IC50 [7, 10] [µM] | IC50 [7, 11] [µM] | IC50 [1] [nM] | IC50 [2] [nM] | IC50 [3] [nM] | IC50 [4] [nM] | IC50 [5, 12] [nM] | IC50 [6] [nM] | IC50 [8] [nM] | AUC (arbitrary units) MKL-2 [8] [arbitrary units] | averaged potency (IC50) across all MCC cell lines tested [9] | activity on cell viability, in words [7] |
| --- | --- | --- | --- | --- | --- | --- | --- | --- | --- | --- | --- | --- | --- | --- | --- | --- | --- | --- | --- |
| O=C1C=CC2(C=C1)CCNC1=C2C2=NCCc3c[nH]c(c32)C1=O [Compound 21, didebromodiscorhabdin C] | 952.2 | 883 | 866.1 | 851.9 | > 5000 | 682.4 | 973.8 | > 10 | > 5 |  |  |  |  |  |  |  |  |  |  |
| Cn1cnc(SC2=CC(=O)C=C3S[C@H]4C[C@@]23C2=C(N4)C(=O)c3[nH]cc4c3C2=NCC4)c1C[C@H](N)C(=O)O (relative stereo) [Compound 5, (+)-(6S,8S,7′S*) discorhabdin K] | 944.5 | 837.7 | 841.3 | 767.7 |  | 335 | 660.5 |  | > 5 | > 10000 | > 10000 | > 10000 | 8300 | 3030 | 6150 |  |  |  |  |
| O=C1C2=C3C4=[N+](CCc5c[nH]c1c54)[C@H]1C[C@@]34C[C@@H](N2)SC4=CC1=O [Compound 11, (+)-(2S,6R,8S) discorhabdin D] | 715.8 | 540.6 | 653.2 | 423.9 |  | 60.49 | 216.6 |  |  | > 6000 | 5000 | 5850 | 3620 | 497 | 1810 | 865 | 143.2 |  |  |
| Cn1cnc(S[C@H]2[C@H]3C(=O)C=C4S[C@H]5C[C@]42C2=C(N5)C(=O)c4[nH]cc5c4C2=[N+]3CC5)c1C[C@H](N)C(=O)O (relative stereo) [Compound 14, (−)-(1R,2R,6R,8S,7′S*) discorhabdin H] | 992.5 | 950.6 | 947 | 952.3 |  | 901.7 | 930 | > 10 | > 5 |  |  |  |  |  |  |  | 946.5 |  |  |
| O=C1C=C[C@@]23C[C@@H](NC4=C2C2=NCCc5c[nH]c(c52)C4=O)SC3=C1 [Compound 4, (+)-(6S,8S) discorhabdin G*/I] | 267.7 | 124.8 | 140 | 121.7 |  | 54.17 | 105.3 |  |  | 2450 | 940 | 1280 | 921 | 481 | 859 | 879 | 108.8 | sub-micromolar |  |
| O=C1C=C(S(=O)(=O)O)[C@@]2(C=CNC3=C2C2=NCCc4c[nH]c(c42)C3=O)C=C1Br [Compound 9, (+)-(6S) sulphonyl-7,8-dehydrodiscorhabdin E] | 911.5 | 882.5 | 793.9 | 914.8 |  | 917.6 | 949.7 | > 10 | > 5 |  |  |  |  |  |  |  |  |  | practically inactive |
| O=C1C(Br)=CC2(C=CNC3=C2C2=NCCc4c[nH]c(c42)C3=O)C=C1Br [Compound 20, 7,8-dehydrodiscorhabdin C] | 940.1 | 694.4 | 815.8 | 542.4 |  | 376.3 | 661 |  | > 5 | > 10000 | 7480 | ~10000 | 5570 | 3260 | 7430 |  |  |  |  |
| O=C(O)CNC1C2C(=O)C=C3SC4CC31C1=C(N4)C(=O)c3[nH]cc4c3C1=[N+]2CC4 (single isomer, unassigned; (-)) [Compound 13] | 909 | 478.7 | 719.3 | 436.7 |  | 83.43 | 200.7 |  |  | > 10000 | 3820 | > 6000 | 3420 | 682 | 1560 | 2910 | 391.1 |  |  |
| O=C1C=C2SC3CC2(C=C1Br)C1=C(N3)C(=O)c2[nH]cc3c2C1=NCC3 (single isomer, unassigned; (-)) [(-)B] | 114.3 | 41.45 | 80.18 | 33.26 |  | 1.929 | 5.814 |  |  |  |  |  |  |  |  |  | 9.451 |  | comparable activity against MCC and control cell lines |

Source: publication PMC10532587, “An Investigation of Structure–Activity Relationships and Cell Death Mechanisms of the Marine Alkaloids Discorhabdins in Merkel Cell Carcinoma Cells” (Marine Drugs, 2023)
